# Test results: ChEMBL document CHEMBL1201862, “PubChem BioAssay data set” (2004)
#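 Method: 48-hour compound exposure of cells in 96-well plates, five concentrations, linear interpolation of endpoints. GI50 marks 50% less growth.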 Activity calls are given as the source filed them. Cut-off read from the data, not from the text of the source: active = GI50 up to about 1.1 µM and inactive = higher.
# Tests used:
# Experiment in all cases: NCI anticancer screen, dose series, 48 h
# SF-268 = system: SF-268
# SNB-19 = system: SNB-19
# DU-145 = system: DU-145
# Hs-578T = system: Hs-578T
# TK-10 = system: TK-10
# Malme-3M = system: Malme-3M
# SW-620 = system: SW-620
# MDA-MB-435 = system: MDA-MB-435
# K562 = system: K562
# OVCAR-8 = system: OVCAR-8
# MCF7 = system: MCF7
# SK-OV-3 = system: SK-OV-3
# CCRF-CEM = system: CCRF-CEM
# UO-31 = system: UO-31
# SK-MEL-2 = system: SK-MEL-2
# CAKI-1 = system: CAKI-1
# SR = system: SR
# RXF 393 = system: RXF 393
# OVCAR-4 = system: OVCAR-4
# RPMI-8226 = system: RPMI-8226
# SN12C = system: SN12C
# HCT-15 = system: HCT-15
# A549 = system: A549
# OVCAR-5 = system: OVCAR-5
# NCI-H226 = system: NCI-H226
# MDA-N = system: MDA-N
# SF-539 = system: SF-539
# COLO 205 = system: COLO 205
# KM12 = system: KM12
# MDA-MB-231 = system: MDA-MB-231
# SF-295 = system: SF-295
# NCI/ADR-RES = system: NCI/ADR-RES
# NCI-H522 = system: NCI-H522
# U-251 = system: U-251
# UACC-257 = system: UACC-257
# PC-3 = system: PC-3
# HOP-62 = system: HOP-62
# NCI-H460 = system: NCI-H460
# T47D = system: T47D
# HT-29 = system: HT-29
# SK-MEL-5 = system: SK-MEL-5
# LOX IMVI = system: LOX IMVI
# UACC-62 = system: UACC-62
# MOLT-4 = system: MOLT-4
# HCC 2998 = system: HCC 2998
# EKVX = system: EKVX
# A498 = system: A498
# OVCAR-3 = system: OVCAR-3
# IGROV-1 = system: IGROV-1
# M14 = system: M14
# 786-0 = system: 786-0
# HCT-116 = system: HCT-116
# NCI-H23 = system: NCI-H23
# HL-60 = system: HL-60
# SK-MEL-28 = system: SK-MEL-28
# ACHN = system: ACHN
# HOP-92 = system: HOP-92
smiles,measurement,setting,value
[O-][n+]1onc2c1-c1nonc1CC2,GI50,SF-268,36.5 µM (inactive)
same,GI50,SNB-19,> 100 µM (inactive)
same,GI50,DU-145,51.2 µM (inactive)
same,GI50,Hs-578T,26.7 µM (inactive)
same,GI50,TK-10,21.5 µM (inactive)
same,GI50,Malme-3M,11.9 µM (inactive)
same,GI50,SW-620,45.1 µM (inactive)
same,GI50,MDA-MB-435,39.1 µM (inactive)
same,GI50,K562,56 µM (inactive)
same,GI50,OVCAR-8,46 µM (inactive)
same,GI50,MCF7,28.5 µM (inactive)
same,GI50,SK-OV-3,47.9 µM (inactive)
same,GI50,CCRF-CEM,27.7 µM (inactive)
same,GI50,UO-31,48.6 µM (inactive)
same,GI50,SK-MEL-2,24.1 µM (inactive)
same,GI50,CAKI-1,69.3 µM (inactive)
same,GI50,SR,1.46 µM (inactive)
same,GI50,RXF 393,36.1 µM (inactive)
same,GI50,OVCAR-4,30.3 µM (inactive)
same,GI50,RPMI-8226,> 100 µM (inactive)
same,GI50,SN12C,37.5 µM (inactive)
same,GI50,HCT-15,62.8 µM
same,GI50,A549,72.1 µM (inactive)
same,GI50,OVCAR-5,50.8 µM (inactive)
same,GI50,NCI-H226,36.8 µM (inactive)
same,GI50,MDA-N,46.2 µM (inactive)
same,GI50,SF-539,25.3 µM (inactive)
same,GI50,COLO 205,48.5 µM (inactive)
same,GI50,KM12,45.3 µM (inactive)
same,GI50,MDA-MB-231,27 µM (inactive)
same,GI50,SF-295,> 100 µM (inactive)
same,GI50,NCI/ADR-RES,42.7 µM (inactive)
same,GI50,NCI-H522,31 µM (inactive)
same,GI50,U-251,31.9 µM (inactive)
same,GI50,UACC-257,18.5 µM (inactive)
same,GI50,PC-3,26.5 µM (inactive)
same,GI50,HOP-62,28.2 µM (inactive)
same,GI50,NCI-H460,54.2 µM (inactive)
same,GI50,T47D,83 µM (inactive)
same,GI50,HT-29,35.5 µM (inactive)
same,GI50,SK-MEL-5,27 µM (inactive)
same,GI50,LOX IMVI,22.4 µM (inactive)
same,GI50,UACC-62,36.6 µM (inactive)
same,GI50,MOLT-4,19.2 µM (inactive)
same,GI50,HCC 2998,77.1 µM (inactive)
same,GI50,EKVX,25.9 µM (inactive)
same,GI50,A498,31.7 µM (inactive)
same,GI50,OVCAR-3,10.6 µM (inactive)
same,GI50,IGROV-1,38.8 µM (inactive)
same,GI50,M14,25.1 µM (inactive)
same,GI50,786-0,43.7 µM (inactive)
same,GI50,HCT-116,20.7 µM (inactive)
same,GI50,NCI-H23,23.8 µM (inactive)
same,GI50,HL-60,34.5 µM (inactive)
same,GI50,SK-MEL-28,55.2 µM (inactive)
same,GI50,ACHN,27.1 µM (inactive)
ClC1=C(Cl)C2OC3C=CCC3OC2C(Cl)=C1Cl (configuration not stated),GI50,SF-268,73.5 µM (inactive)
same,GI50,DU-145,> 100 µM (inactive)
same,GI50,Hs-578T,27.5 µM (inactive)
same,GI50,TK-10,> 100 µM (inactive)
same,GI50,SW-620,41.2 µM (inactive)
same,GI50,MDA-MB-435,56.9 µM (inactive)
same,GI50,K562,37.8 µM (inactive)
same,GI50,OVCAR-8,> 100 µM (inactive)
same,GI50,MCF7,0.429 µM (active)
same,GI50,SK-OV-3,> 100 µM (inactive)
same,GI50,CCRF-CEM,40.1 µM (inactive)
same,GI50,UO-31,> 100 µM (inactive)
same,GI50,SK-MEL-2,18.8 µM (inactive)
same,GI50,CAKI-1,> 100 µM (inactive)
same,GI50,SR,35.3 µM (inactive)
same,GI50,RXF 393,28.4 µM (inactive)
same,GI50,OVCAR-4,> 100 µM (inactive)
same,GI50,RPMI-8226,23 µM (inactive)
same,GI50,HCT-15,32.1 µM
same,GI50,OVCAR-5,> 100 µM (inactive)
same,GI50,NCI-H226,95.3 µM (inactive)
same,GI50,MDA-N,51.3 µM (inactive)
same,GI50,SF-539,> 100 µM (inactive)
same,GI50,KM12,40.6 µM (inactive)
same,GI50,MDA-MB-231,> 100 µM (inactive)
same,GI50,SF-295,> 100 µM (inactive)
same,GI50,NCI/ADR-RES,53.6 µM (inactive)
same,GI50,NCI-H522,32.2 µM (inactive)
same,GI50,U-251,52.8 µM (inactive)
same,GI50,UACC-257,34.5 µM (inactive)
same,GI50,PC-3,39.7 µM (inactive)
same,GI50,HOP-62,> 100 µM (inactive)
same,GI50,NCI-H460,40 µM (inactive)
same,GI50,T47D,2.47 µM (inactive)
same,GI50,HT-29,21.3 µM (inactive)
same,GI50,SK-MEL-5,29.5 µM (inactive)
same,GI50,LOX IMVI,52 µM (inactive)
same,GI50,MOLT-4,35.3 µM (inactive)
same,GI50,HCC 2998,29.4 µM (inactive)
same,GI50,EKVX,44.1 µM (inactive)
same,GI50,A498,> 100 µM (inactive)
same,GI50,OVCAR-3,> 100 µM (inactive)
same,GI50,IGROV-1,> 100 µM (inactive)
same,GI50,M14,> 100 µM (inactive)
same,GI50,786-0,> 100 µM (inactive)
same,GI50,HCT-116,32.9 µM (inactive)
same,GI50,NCI-H23,56.4 µM (inactive)
same,GI50,HL-60,36.1 µM (inactive)
same,GI50,HOP-92,28.8 µM (inactive)
same,GI50,SK-MEL-28,> 100 µM (inactive)
same,GI50,ACHN,91 µM (inactive)
